In EPA's CvTdb concentration-time database:

Assays:
Rat [1] = experiment: concentration in liver after dosing; conditions: 6 h; dosed: Perfluorooctane Sulfonate; 2 mg/kg; oral; Female; Harlan Sprague Dawley
Rat [2] = experiment: concentration in liver after dosing; conditions: 864 h; dosed: Perfluorooctane Sulfonate; 20 mg/kg; oral; Female; F344
Rat [3] = experiment: concentration in liver after dosing; conditions: 1848 h; dosed: Perfluorooctane Sulfonate; 2 mg/kg; oral; Female; Harlan Sprague Dawley
Rat [4] = experiment: concentration in liver after dosing; conditions: 6 h; dosed: Perfluorooctane Sulfonate; 2 mg/kg; oral; Female; Harlan Sprague Dawley; remark: listed apart in the source
Rat [5] = experiment: concentration in liver after dosing; conditions: 3360 h; dosed: Perfluorooctane Sulfonate; 2 mg/kg; oral; Female; Harlan Sprague Dawley
Rat [6] = experiment: concentration in liver after dosing; conditions: 864 h; dosed: Perfluorooctane Sulfonate; 2 mg/kg; oral; Female; Harlan Sprague Dawley
Rat [7] = experiment: concentration in liver after dosing; conditions: 3360 h; dosed: Perfluorooctane Sulfonate; 2 mg/kg; oral; Female; Harlan Sprague Dawley; remark: listed apart in the source
Rat [8] = experiment: concentration in liver after dosing; conditions: 3360 h; dosed: Perfluorooctane Sulfonate; 20 mg/kg; oral; Male; Harlan Sprague Dawley
Rat [9] = experiment: concentration in plasma after dosing; conditions: 6 h; dosed: Perfluorooctane Sulfonate; 2 mg/kg; oral; Female; Harlan Sprague Dawley
Rat [10] = experiment: concentration in kidney after dosing; conditions: 1848 h; dosed: Perfluorooctane Sulfonate; 20 mg/kg; oral; Male; Harlan Sprague Dawley
Rat [11] = experiment: concentration in brain after dosing; conditions: 6 h; dosed: Perfluorohexanoic Acid; 80 mg/kg; oral; Male; Harlan Sprague Dawley
Rat [12] = experiment: concentration in brain after dosing; conditions: 0.5 h; dosed: Perfluorohexanoic Acid; 80 mg/kg; oral; Female; Harlan Sprague Dawley
Rat [13] = experiment: concentration in brain after dosing; conditions: 1 h; dosed: Perfluorohexanoic Acid; 80 mg/kg; oral; Female; Harlan Sprague Dawley
Rat [14] = experiment: concentration in kidney after dosing; conditions: 1 h; dosed: Perfluorohexanoic Acid; 80 mg/kg; oral; Male; Harlan Sprague Dawley
Rat [15] = experiment: concentration in plasma after dosing; conditions: 0.75 h; dosed: Perfluorohexanoic Acid; 80 mg/kg; oral; Male; Harlan Sprague Dawley
Rat [16] = experiment: concentration in plasma after dosing; conditions: 0.75 h; dosed: Perfluorohexanoic Acid; 40 mg/kg; iv; Female; Harlan Sprague-Dawley
rat [17] = experiment: concentration in blood after dosing; negative times count back from the end of exposure; conditions: dosed: trichloroethylene, 50 ppm, inhalation, duration: 4 hr, male, Sprague Dawley
Rat [18] = experiment: concentration in plasma after dosing; conditions: 6 h; dosed: Gemfibrozil; 100 mg/kg; oral; Male; Sprague-Dawley
Rat [19] = experiment: concentration in plasma after dosing; conditions: 15 h; dosed: Gemfibrozil; 50 mg/kg; oral; Male; Sprague-Dawley
Rat [20] = experiment: concentration in plasma after dosing; conditions: 18 h; dosed: Gemfibrozil; 50 mg/kg; oral; Male; Sprague-Dawley
Rat [21] = experiment: concentration in plasma after dosing; conditions: 15 h; dosed: Gemfibrozil; 50 mg/kg; oral; Male; Sprague-Dawley; remark: listed apart in the source
Rat [22] = experiment: concentration in plasma after dosing; conditions: 24 h; dosed: Gemfibrozil; 4.29 mg/kg; oral; Male; Sprague-Dawley
Rat [23] = experiment: concentration in plasma after dosing; conditions: 5 min; dosed: Gemfibrozil; 100 mg/kg; oral; Male; Sprague-Dawley
Rat [24] = experiment: concentration in brain after dosing; conditions: 1.5 h; dosed: 2-Methyltetrahydrofuran; 40 mg/kg; iv; Male; Harlan Sprague Dawley
Rat [25] = experiment: concentration in brain after dosing; conditions: 0.2 h; dosed: 2-Methyltetrahydrofuran; 40 mg/kg; iv; Male; Harlan Sprague Dawley
Rat [26] = experiment: concentration in plasma after dosing; conditions: 2 h; dosed: 2-Methyltetrahydrofuran; 40 mg/kg; iv; Female; Harlan Sprague Dawley
Rat [27] = experiment: concentration in plasma after dosing; conditions: 0.5 h; dosed: 2-Methyltetrahydrofuran; 40 mg/kg; iv; Male; Harlan Sprague Dawley
Rat [28] = experiment: concentration in liver after dosing; conditions: 12 h; dosed: Fluorotelomer alcohol 8+2; 80 mg/kg; oral; Female; Harlan Sprague Dawley
Rat [29] = experiment: concentration in liver after dosing; conditions: 12 h; dosed: Fluorotelomer alcohol 8+2; 24 mg/kg; oral; Male; Harlan Sprague Dawley
Rat [30] = experiment: concentration in brain after dosing; conditions: 1 h; dosed: Fluorotelomer alcohol 8+2; 24 mg/kg; oral; Male; Harlan Sprague Dawley
Rat [31] = experiment: concentration in plasma after dosing; conditions: 192 h; dosed: 678-39-7; 12 mg/kg; iv; Male; F344
Rat [32] = experiment: concentration in plasma after dosing; conditions: dosed: 678-39-7, 40 mg/kg, iv, Male, F344
Rat [33] = experiment: concentration in plasma after dosing; conditions: dosed: 678-39-7, 40 mg/kg, iv, Male, F344; remark: listed apart in the source
Rat [34] = experiment: concentration in kidney after dosing; conditions: 0.5 h; dosed: Fluorotelomer alcohol 8+2; 80 mg/kg; oral; Female; Harlan Sprague Dawley
Rat [35] = experiment: concentration in plasma after dosing; conditions: dosed: Fluorotelomer alcohol 8+2, 12 mg/kg, oral, Male, Harlan Sprague Dawley
Rat [36] = experiment: concentration in plasma after dosing; conditions: dosed: Fluorotelomer alcohol 8+2, 12 mg/kg, oral, Male, Harlan Sprague Dawley; remark: listed apart in the source
Rat [37] = experiment: concentration in plasma after dosing; conditions: dosed: Fluorotelomer alcohol 8+2, 12 mg/kg, oral, Male, Harlan Sprague Dawley; remark: listed apart in the source

O=S(=O)([O-])C(F)(F)C(F)(F)C(F)(F)C(F)(F)C(F)(F)C(F)(F)C(F)(F)C(F)(F)F [Perfluorooctane Sulfonate]
Conditions | concentration in kidney [ng/g] | concentration in liver [ng/g] | concentration in plasma [ng/mL]
Rat [1] | – | 19800 | –
Rat [2] | – | 71400 | –
Rat [3] | – | 9070 | –
Rat [4] | – | 25400 | –
Rat [5] | – | 3090 | –
Rat [6] | – | 11100 | –
Rat [7] | – | 1350 | –
Rat [8] | – | 15700 | –
Rat [9] | – | – | 4920
Rat [10] | 25300 | – | –

O=C(O)C(F)(F)C(F)(F)C(F)(F)C(F)(F)C(F)(F)F [Perfluorohexanoic Acid]
Conditions | concentration in brain [ng/g] | concentration in kidney [ng/g] | concentration in plasma [ng/mL]
Rat [11] | 694 | – | –
Rat [12] | 1270 | – | –
Rat [13] | 1270 | – | –
Rat [14] | – | 86000 | –
Rat [15] | – | – | 134000
Rat [16] | – | – | 1570

ClC=C(Cl)Cl [trichloroethylene]
rat [17]
Conditions | concentration in blood [ng/mL]
0.2317 h | 2420
0.4119 h | 1510
0.9932 h | 820
1.803 h | 370
3.975 h | 289

rat [17], during exposure
Conditions | concentration in blood [ng/mL]
-6 s | 2790
-3.423 h | 1890
-3.024 h | 1360
-1.999 h | 2680
-1.012 h | 2670

Cc1ccc(C)c(OCCCC(C)(C)C(=O)O)c1 [Gemfibrozil]
Conditions | concentration in plasma [ng/mL]
Rat [18] | 22700
Rat [19] | 928
Rat [20] | 1510
Rat [21] | 1550
Rat [22] | 159
Rat [23] | 1930

CC1CCCO1 (stereo unspecified) [2-Methyltetrahydrofuran]
Conditions | concentration in brain [ng/mL] | concentration in plasma [ng/mL]
Rat [24] | 7510 | –
Rat [25] | 24900 | –
Rat [26] | – | 9860
Rat [27] | – | 25100

O=C(O)CCC(F)(F)C(F)(F)C(F)(F)C(F)(F)C(F)(F)C(F)(F)C(F)(F)F [Fluorotelomer acid 7+3]
Conditions | concentration in brain [ng/g] | concentration in kidney [ng/g] | concentration in liver [ng/g] | concentration in plasma [ng/mL]
Rat [28] | – | – | 7200 | –
Rat [29] | – | – | 1580 | –
Rat [30] | 160 | – | – | –
Rat [31] | – | – | – | 13.6
Rat [34] | – | 435 | – | –

Conditions | concentration in plasma [ng/mL]
Rat [32], 0.25 h | 84.2
Rat [32], 6 h | 820
Rat [33], 3 h | 3090
Rat [33], 5 min | 25.4
Rat [35], 0.25 h | 41.6
Rat [35], 6 h | 841
Rat [36], 1 h | 334
Rat [36], 24 h | 377
Rat [37], 0.75 h | 313
Rat [37], 12 h | 197
